Test results reported in EPA's ToxValDB 9.5.
Structures can show the parent of a compound that is named as a salt.

Tested on: Rattus norvegicus
Details: oral
[1] = subchronic, gavage, M, Sprague-Dawley, Clinical Observation: Soiled perigenital region + Body Weight Changes: Weight gain decrease + Food Consumption: decrease(week 1) + Blood …
[2] = subchronic, gavage, M, Sprague-Dawley, Hematology: RBC decrease, Hgb decrease, Ret increase + Blood Chemistry: Cho increase, PL increase + Absolute Organ Weight: Kidney increase…
[3] = subchronic, gavage, M, Sprague-Dawley, Clinical Observation: Salivation PtosisEmaciation Locomotor activity decrease + Body Weight Changes: Gain decrease + Blood Chemistry: TP …
[4] = short-term, duration: 28 days, gavage, F, Sprague-Dawley, Urinalysis: Volume increasep H decrease + Hematology: APTT increase, PT increase + Blood Chemistry: TP increase, Glu decrease, Cho increase…
[5] = short-term, duration: 28 days, gavage, M, Sprague-Dawley, Urinalysis: Volume increasep H decrease + Hematology: APTT increase, PT increase + Blood Chemistry: TP increase, Glu decrease, Cho increase…
[6] = subchronic, gavage, M, Sprague-Dawley, Absolute Organ Weight: Liver increase + Relative Organ Weight: Liver increase + Necropsy: Stomach-Thickening of limiting ledge + …
[7] = short-term, duration: 28 days, gavage, F, Sprague-Dawley, Clinical Observation: Salivation Soft feces Diarrhea Soiled perigenital fur + Body Weight Changes: decrease, Gain decrease + Urinalysis: pH …
[8] = short-term, duration: 28 days, gavage, M, Sprague-Dawley, Clinical Observation: Salivation Soft feces Diarrhea Soiled perigenital fur + Body Weight Changes: decrease, Gain decrease + Urinalysis: pH …

Cc1cccc(Cl)c1Cl [Benzene, 1,2-dichloro-3-methyl-]
NOAEL [1]: 200 mg/kg-day | NOEL [1]: < 50 mg/kg-day

Sc1ccccc1 [Benzenethiol]
LOAEL [2]: 0.4 mg/kg-day | LOEL [2]: 0.4 mg/kg-day | NOAEL [2]: < 0.4 mg/kg-day | NOEL [2]: < 0.4 mg/kg-day

N#Cc1cccc([N+](=O)[O-])c1 [Benzonitrile, 3-nitro-]
NOEL (short-term, duration: 28 days, gavage, M/F, Deaths + Clinical Observation: Paralytic gait Piloerection Reddish tears + Body Weight Changes: Body weight gain decrease + Hematology: WBC…): < 0.5 mg/kg-day

ClC(Cl)(Cl)c1ccccc1 [Benzotrichloride]
NOAEL (short-term, duration: 28 days, diet, M/F, CD, Blood Chemistry: SDH(sorbitol dehydrogenase) increase, LDH increase + Histopathology: Liver: Anisokaryosis associated with pyknosis, …): < 0.5 ppm

CCCCN(CCCC)C(=S)[S-].CCCCN(CCCC)C(=S)[S-].[Cu+2] [Bis(N,N-dibutyldithiocarbamato)copper]
NOEL (subchronic, gavage, M, Sprague-Dawley, Urinalysis: Protein increase, Cl increase + Blood Chemistry: Cho increase + Relative Organ Weight: Adrenal decrease): < 40 mg/kg-day

S=C(SSSSC(=S)N1CCCCC1)N1CCCCC1 [Bis(piperidinothiocarbonyl) tetrasulphide]
NOEL (short-term, duration: 28 days, gavage, F, Sprague-Dawley, Histopathology: Kidney-Hyaline droplet, proximal tubular epithelium Kidney-Eosinophilic body, proximal tubular epithelium): 1000 mg/kg-day | NOEL (short-term, duration: 28 days, gavage, M, Sprague-Dawley, Histopathology: Kidney-Hyaline droplet, proximal tubular epithelium Kidney-Eosinophilic body, proximal tubular epithelium): 100 mg/kg-day | NOEL (subchronic, gavage, M, Sprague-Dawley, Clinical Observation: Light brown stool + Body Weight Changes: decrease, R): 1000 mg/kg-day

O=C1C=CC(=O)N1c1ccc(Cc2ccc(N3C(=O)C=CC3=O)cc2)cc1 [Bismaleimide]
NOEL (subchronic, gavage, Sprague-Dawley): 1000 mg/kg-day

CC(O)COc1ccc(C(C)(C)c2ccc(OCC(C)O)cc2)cc1 (stereo not drawn) [Bisphenol A bis(polypropylene glycol) ether]
LOAEL [3]: 120 mg/kg-day | LOEL [3]: 120 mg/kg-day | NOAEL [3]: 30 mg/kg-day | NOEL [3]: 30 mg/kg-day

O=c1[nH]c(=O)n([C@@H]2O[C@H](CO)[C@@H](O)[C@@H]2O)cc1/C=C/Br [Bravavir]
NOEL (chronic, duration: 182 days, gavage, M/F, Wistar, Deaths + Clinical Observation: Soiled eyelid Smudge, perioral, nose Flush, ear auricle Polyuria Soiled perineal region Decrease or loss of …): 80 mg/kg-day

CCCC=NO [Butyraldehyde oxime]
NOEL (subchronic, gavage, M/F, Fischer 344, Deaths + Body Weight Changes: decrease + Urinalysis: Thiocyanate (I1/4mol/24 hr) increase, Thiocyanate/creatinine ratio increase, Creatinine…): < 25 mg/kg-day

c1ccc2c(c1)[nH]c1ccccc12 [Carbazole]
NOEL (subchronic, gavage, M, Sprague-Dawley, Body Weight Changes: decrease + Blood Chemistry: T-Cho increase, PL increase, Glu decrease + Absolute Organ Weight: Liver increase, Kidney …): 25 mg/kg-day

CC(Cl)CCCC(Cl)CCCC(Cl)CCCC(Cl)CCCC(Cl)CCCC(Cl)CCCl (stereo not drawn) [Chloro C22-26 alkanes]
NOEL (subchronic, duration: 13 weeks, gavage, F, Fischer 344, Histopathology: Liver-Granuloma inflammation): < 235 mg/kg-day

N#CN=C(N)N [Cyanoguanidine]
NOAEL (subchronic, duration: 44 days, gavage, M, CD(SD)): 1000 mg/kg-day

C1CCC2CCCCC2C1 (stereo not drawn) [Decalin]
LOEL [4]: 200 mg/kg-day | NOEL [4]: 40 mg/kg-day | LOEL [5]: 40 mg/kg-day | NOEL [5]: < 40 mg/kg-day

CCOC(=O)/C=C\C(=O)OCC [Diethyl maleate]
NOAEL [6]: 20 mg/kg-day | NOEL [6]: 20 mg/kg-day

CC(O)CNCC(C)O (stereo not drawn) [Diisopropanolamine]
NOAEL (subchronic, duration: 90 days, drinking water, F, Fischer 344, Water Consumption: decrease + Urinalysis: Volume decrease, Specific gravity increase + Absolute Organ Weight: Kidney increase500 + Relative…): 500 mg/kg-day | NOAEL (subchronic, duration: 90 days, drinking water, M/F, Fischer 344, Water Consumption: decrease + Urinalysis: SG increase, Volume decrease + Absolute Organ Weight: Kidney increase + Relative Organ Weight: …): 100 mg/kg-day | NOAEL (subchronic, duration: 90 days, drinking water, M, Fischer 344, Water Consumption: decrease + Urinalysis: Volume decrease, Specific gravity increase + Absolute Organ Weight: Kidney increase500 + Relative…): 100 mg/kg-day

CC(=O)OC1CC(C)OC(C)O1 (stereo not drawn) [Dimethoxane]
NOEL (subchronic, duration: 13 weeks, gavage, M/F, Fischer 344, Body Weight Changes: decrease + Relative Organ Weight: Kidney increase, Brain increase, Lung increase + Histopathology: Stomach/forestomach…): 31 mg/kg-day

CO[Si](C)(C)OC [Dimethoxydimethylsilane]
NOAEL (short-term, duration: 29 days, gavage, M/F, Sprague-Dawley, Deaths + Clinical Observation: Soiling of chin and urogenital area Soiling of muzzle + Absolute Organ Weight: Adrenal decrease, Liver …): 250 mg/kg-day

COC(=O)c1cccc(C(=O)OC)c1 [Dimethyl isophthalate]
NOAEL (subchronic, gavage, M, Sprague-Dawley, Clinical Observation: Salivation + Urinalysis: Volume increase, Na increase): 250 mg/kg-day

CCCCCCCCCCCCCCCCCC[N+](C)(C)CCCCCCCCCCCCCCCCCC.[Cl-] [Dimethyldioctadecylammonium chloride]
NOAEL (short-term, duration: 28 days, gavage, M/F, Wistar, Body Weight Changes: Weight gain decrease + Hematology: WBC increase + Histopathology: Adrenal: Necrosis, cortex Adrenal: Granulocytes …): 100 mg/kg-day

CCCCCCC[CH2][Sn]([CH2]CCCCCCC)([S]CC(=O)OCCCCCC(C)C)[S]CC(=O)OCCCCCC(C)C [Dioctyltin-S,S'-bis(isooctylmercaptoacetate)]
NOAEL (subchronic, duration: 13 weeks, diet, Sprague-Dawley): 14.4 mg/kg-day

C=C[Si](C)(C)O[Si](C)(C)C=C [Divinyltetramethyldisiloxane]
NOAEL (short-term, duration: 28 days, gavage, M, CD(SD), Clinical Observation: Clear material around the mouth Red material around the mouth + Body Weight Changes: Mean body weight decrease, Weight…): < 50 mg/kg-day

COC1COC(OC2COC(OC3COC(OC4COC(OC)C(OS(=O)(=O)[O-])C4OS(=O)(=O)[O-])C(OC4OC(C(=O)[O-])C(OC)C(OS(=O)(=O)[O-])C4OS(=O)(=O)[O-])C3OS(=O)(=O)[O-])C(OS(=O)(=O)[O-])C2OS(=O)(=O)[O-])C(OS(=O)(=O)[O-])C1OS(=O)(=O)[O-].[Na+].[Na+].[Na+].[Na+].[Na+].[Na+].[Na+].[Na+].[Na+].[Na+] (stereo not drawn) [Elmiron]
NOEL (repeat dose other, gavage, M/F, Fischer 344, Hematology: Hct decrease, Hgb decrease, RBC decrease, Plt increase, WBC increase + Absolute Organ Weight: Liver increase, Spleen increase, …): < 63 mg/kg-day

Cc1cc(O)c2c(c1)C(=O)c1cc(O)cc(O)c1C2=O [Emodin]
NOEL (chronic, duration: 14 weeks, diet, M/F, Fischer 344, Clinical Observation: Body color change Diarrhea + Body Weight Changes: decrease. >2500 + Food Consumption: decrease + Hematology: Hct …): < 24.4 mg/kg-day

CCOC(=O)CC#N [Ethyl cyanoacetate]
NOAEL (subchronic, duration: 90 days, gavage, M/F, Wistar, Urinalysis: Volume increase + Hematology: WBC decrease, RBC decrease, HGB decrease, HTC decrease + Histopathology: Liver: Inflammation, …): 100 mg/kg-day

CC(O)(P(=O)(O)O)P(=O)(O)O [Etidronic acid]
NOAEL (subchronic, duration: 90 days, diet, M/F, Body Weight Changes: decrease + Food Consumption: decrease + Hematology: RBC increase, HGB decrease, HCT decrease + Absolute Organ Weight: …): > 2880 mg/kg-day

CC(C)(C)c1cc(CCC(=O)O)cc(C(C)(C)C)c1O [Fenozan]
NOEL (subchronic, duration: 90 days, gavage, M/F, Blood Chemistry: GPT increase, TP increase, GLB increase, T-CHO increase + Organ Weight: Liver increase + Histopathology: Liver - …): 3 mg/kg-day

C[C@@H](O)[C@H]1C(=O)N2C(C(=O)O)=C([C@H]3CCCO3)S[C@H]12 [Fropenem]
NOAEL (chronic, duration: 182 days, gavage, M/F, CD, Clinical Observation: Loose stool Soiled perineal region + Body Weight Changes: decrease + Food Consumption: decrease + Water Consumption: …): 100 mg/kg-day

Cc1ccc(C)c(OCCCC(C)(C)C(=O)O)c1 [Gemfibrozil]
NOAEL (chronic, duration: 91 days, diet, F, CD, Body Weight Changes: Body weight gain decrease + Hematology: RBC decrease, HCT decrease, HGB decrease, Plt increase, RET increase + Blood …): 30 mg/kg-day | NOAEL (chronic, duration: 91 days, diet, M, CD, Body Weight Changes: Body weight gain decrease + Hematology: RBC decrease, HCT decrease, HGB decrease, Plt increase, RET increase + Blood …): < 30 mg/kg-day

[In] [Indium]
NOEL (short-term, duration: 28 days, gavage, Crj:CD): 1000 mg/kg-day

CC(C)c1cccc2ccccc12 [Isopropylnaphthalene]
LOEL [7]: 250 mg/kg-day | NOEL [7]: 50 mg/kg-day | LOEL [8]: 250 mg/kg-day | NOEL [8]: 50 mg/kg-day

OC[C@@H](O)[C@@H](O[C@@H]1O[C@H](CO)[C@H](O)[C@H](O)[C@H]1O)[C@H](O)[C@@H](O)CO [Lactitol]
NOEL (subchronic, gavage, M/F, SLC:SD, Clinical Observation: Loose stool, Diarrhea Soiled fur, Salivation Abdominal distention + Body Weight Changes: decrease + Food Consumption: …): < 625 mg/kg-day

C=CC(C)(O)CCC=C(C)C (stereo not drawn) [Linalool]
NOAEL (short-term, duration: 28 days, gavage, M/F, CD/BR, Deaths + Blood Chemistry: TP increase, Alb increase, Ca increase, Glu decrease + Absolute Organ Weight: Liver increase, Kidney increase + …): 160 mg/kg-day

O=C/C=C/[O-].[Na+] [Malonaldehyde, sodium salt]
NOEL (subchronic, duration: 13 weeks, gavage, M/F, Fischer 344, Deaths + Clinical Observation: Rough hair coats Red exudate around the eyes Impairment of hindleg motor ability + Body Weight Changes: …): 30 mg/kg-day

COC(=O)CCS [Methyl 3-mercaptopropionate]
NOAEL (subchronic, gavage, M, Wistar, Clinical Observation: Pushed their heads through the bedding + Relative Organ Weight: Liver increase + Histopathology: Stomach: Hyperplasia…): 100 mg/kg-day

COC(N)=O [Methyl carbamate]
NOEL (subchronic, duration: 13 weeks, gavage, M/F, Fischer 344, Deaths + Body Weight Changes: decrease + Absolute Organ Weight: Liver decrease + Relative Organ Weight: Liver decrease + Histopathology: …): 50 mg/kg-day

C[C@](N)(Cc1ccc(O)c(O)c1)C(=O)O.C[C@](N)(Cc1ccc(O)c(O)c1)C(=O)O.O.O.O [Methyldopa sesquihydrate]
NOEL (subchronic, duration: 13 weeks, diet, M/F, Fischer 344, Deaths + Body Weight Changes: decrease + Food Consumption: decrease + Absolute Organ Weight: Liver decrease + Relative Organ Weight: Liver …): < 298 mg/kg-day

CN(C)CCCCCCN(C)C [N,N,N',N'-Tetramethyl-1,6-hexanediamine]
NOEL (subchronic, gavage, M, Sprague-Dawley, Histopathology: Lungs/ bronchus a"Vacuolation, bronchial epithelium Epididymis- Decrease, sperm): 10 mg/kg-day

C=CC(=O)N(C)C [N,N-Dimethylacrylamide]
NOEL (short-term, duration: 28 days, gavage, M/F, Sprague-Dawley, Functional Observational Battery: Urination increase, Rearing decrease, Unkempt fur Motor activity decrease + Body Weight Changes: decrease…): 20 mg/kg-day
